One block for each molecule: values may come before it.
How the values were obtained:
[1] = target: Hepatocyte growth factor receptor (Homo sapiens, UniProt P08581); assay: Selectivity interaction (Millipore kinase profiler) EUB0000124b MET; conditions: at 10 µM
[2] = target: T1, Testis-specific serine/threonine-protein kinase 3 (Homo sapiens) (UniProt Q96PN8); assay: Selectivity interaction (Kinase panel (Invitrogen)) EUB0000639a TSSK3; conditions: at 200 nM
T1 sequence (whole entry): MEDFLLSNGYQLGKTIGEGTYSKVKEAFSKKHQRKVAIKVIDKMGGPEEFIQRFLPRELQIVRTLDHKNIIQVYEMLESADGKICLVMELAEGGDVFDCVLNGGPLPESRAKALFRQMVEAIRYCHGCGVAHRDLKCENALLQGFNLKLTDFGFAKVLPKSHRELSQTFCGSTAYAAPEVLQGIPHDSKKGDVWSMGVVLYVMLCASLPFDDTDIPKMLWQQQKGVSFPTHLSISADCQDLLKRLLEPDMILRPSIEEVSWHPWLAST

[3] = target: Mitogen-activated protein kinase kinase kinase 21 (Homo sapiens) (UniProt Q5TCX8); assay: Selectivity interaction (ActivX KiNativ screen (kinase selectivity in THP-1 cell lysates)) EUB0000639a MAP3K21; assay type: subcellular; conditions: lysate
[4] = target: Platelet-derived growth factor receptor alpha (Homo sapiens, UniProt P16234); assay: Selectivity interaction (Kinase panel (Invitrogen)) EUB0000639a PDGFRA; conditions: at 200 nM
[5] = target: Ribosomal protein S6 kinase alpha-5 (Homo sapiens) (UniProt O75582); assay: Selectivity interaction (Kinase panel (literature)) EUB0001199aCl RPS6KA5; conditions: at 1 µM
[6] = target: Phosphatidylinositol 4,5-bisphosphate 3-kinase catalytic subunit gamma isoform (Homo sapiens) (UniProt P48736); assay: Selectivity interaction (Adapta Assay) EUB0001632a PIK3CG; conditions: at 10 µM
[7] = target: Mitogen-activated protein kinase 3 (Homo sapiens, UniProt P27361); assay: Selectivity interaction (KinomeScan (DiscoverX)) EUB0000595a MAPK3; conditions: at 10 µM
[8] = target: Mitogen-activated protein kinase kinase kinase 10 (Homo sapiens) (UniProt Q02779); assay: Selectivity interaction (KinomeScan (DiscoverX)) EUB0000595a MAP3K10; conditions: at 10 µM
[9] = target: Tyrosine-protein kinase receptor UFO (Homo sapiens) (UniProt P30530); assay: Selectivity interaction (KinomeScan (DiscoverX)) EUB0000595a AXL; conditions: at 10 µM
[10] = target: T2, Ephrin type-A receptor 3 (Homo sapiens) (UniProt P29320); assay: Selectivity interaction (KinomeScan (DiscoverX)) EUB0000229b EPHA3; conditions: at 10 µM
T2 sequence (whole entry): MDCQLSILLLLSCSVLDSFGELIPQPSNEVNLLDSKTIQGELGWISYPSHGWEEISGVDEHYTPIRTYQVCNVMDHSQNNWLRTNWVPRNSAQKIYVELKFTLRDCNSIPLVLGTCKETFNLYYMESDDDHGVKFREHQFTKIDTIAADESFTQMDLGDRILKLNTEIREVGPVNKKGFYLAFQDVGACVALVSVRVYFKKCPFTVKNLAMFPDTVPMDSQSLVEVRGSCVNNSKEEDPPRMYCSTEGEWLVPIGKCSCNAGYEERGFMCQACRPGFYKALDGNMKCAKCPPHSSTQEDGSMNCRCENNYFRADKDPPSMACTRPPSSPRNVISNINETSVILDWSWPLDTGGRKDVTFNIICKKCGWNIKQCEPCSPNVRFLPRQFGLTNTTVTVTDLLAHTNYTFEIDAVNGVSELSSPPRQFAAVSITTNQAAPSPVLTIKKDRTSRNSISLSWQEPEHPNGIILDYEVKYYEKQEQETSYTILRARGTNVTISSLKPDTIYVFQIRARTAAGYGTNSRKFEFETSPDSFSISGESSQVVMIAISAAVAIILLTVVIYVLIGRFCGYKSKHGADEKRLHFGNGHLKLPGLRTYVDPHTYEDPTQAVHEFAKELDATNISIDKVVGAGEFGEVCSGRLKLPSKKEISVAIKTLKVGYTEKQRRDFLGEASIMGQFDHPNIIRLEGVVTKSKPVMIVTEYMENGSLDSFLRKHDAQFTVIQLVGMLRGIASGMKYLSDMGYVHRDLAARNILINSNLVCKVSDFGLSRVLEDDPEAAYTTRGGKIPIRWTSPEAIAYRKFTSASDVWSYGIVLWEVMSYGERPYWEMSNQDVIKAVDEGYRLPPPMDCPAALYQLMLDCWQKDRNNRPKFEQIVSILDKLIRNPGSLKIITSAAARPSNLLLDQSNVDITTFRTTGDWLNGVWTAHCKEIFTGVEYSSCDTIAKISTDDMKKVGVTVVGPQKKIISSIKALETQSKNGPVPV

[11] = target: Serine/threonine-protein kinase 38-like (Homo sapiens) (UniProt Q9Y2H1); assay: Selectivity interaction (KinomeScan (DiscoverX)) EUB0000229b STK38L; conditions: at 10 µM
[12] = system: Phosphatidylinositol 4,5-bisphosphate 3-kinase catalytic subunit alpha isoform (Homo sapiens), P42336 [I800L]; conditions: at 10 µM
[13] = target: Calcium/calmodulin-dependent protein kinase type II subunit alpha (Homo sapiens, UniProt Q9UQM7); assay: Selectivity interaction (KinomeScan (DiscoverX)) EUB0000092b CAMK2A; conditions: at 10 µM
[14] = target: Proto-oncogene tyrosine-protein kinase ROS (Homo sapiens) (UniProt P08922); assay: Selectivity interaction (KinomeScan (DiscoverX)) EUB0000045b ROS1
[15] = target: Receptor-type tyrosine-protein kinase FLT3 (Homo sapiens) (UniProt P36888); assay: Selectivity interaction (KinomeScan (DiscoverX)) EUB0000607a FLT3; conditions: at 10 µM
[16] = target: Dual specificity protein kinase CLK1 (Homo sapiens, UniProt P49759); assay: Selectivity interaction (SelectScreen profiling (Invitrogen)) EUB0000607a CLK1; conditions: at 2 µM
[17] = target: T3, Serine/threonine-protein kinase ULK3 (Homo sapiens) (UniProt Q6PHR2); assay: Selectivity interaction (KinomeScan (DiscoverX)) EUB0000666a ULK3; conditions: at 10 µM
T3 sequence (whole entry): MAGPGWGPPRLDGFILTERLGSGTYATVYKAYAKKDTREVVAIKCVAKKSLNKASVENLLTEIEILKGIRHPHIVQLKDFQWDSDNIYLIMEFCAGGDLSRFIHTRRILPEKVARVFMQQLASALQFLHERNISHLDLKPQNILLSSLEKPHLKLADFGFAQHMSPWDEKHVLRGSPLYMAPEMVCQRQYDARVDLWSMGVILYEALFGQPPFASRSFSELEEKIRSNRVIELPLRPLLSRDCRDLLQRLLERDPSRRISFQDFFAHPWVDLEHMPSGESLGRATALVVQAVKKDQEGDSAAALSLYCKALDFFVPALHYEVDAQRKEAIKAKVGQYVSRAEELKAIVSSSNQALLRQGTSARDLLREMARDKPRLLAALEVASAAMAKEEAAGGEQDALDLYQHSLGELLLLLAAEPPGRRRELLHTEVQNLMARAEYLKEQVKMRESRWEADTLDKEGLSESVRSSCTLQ

Sequence of Mitogen-activated protein kinase kinase kinase 21 (Homo sapiens) (Q5TCX8 whole entry): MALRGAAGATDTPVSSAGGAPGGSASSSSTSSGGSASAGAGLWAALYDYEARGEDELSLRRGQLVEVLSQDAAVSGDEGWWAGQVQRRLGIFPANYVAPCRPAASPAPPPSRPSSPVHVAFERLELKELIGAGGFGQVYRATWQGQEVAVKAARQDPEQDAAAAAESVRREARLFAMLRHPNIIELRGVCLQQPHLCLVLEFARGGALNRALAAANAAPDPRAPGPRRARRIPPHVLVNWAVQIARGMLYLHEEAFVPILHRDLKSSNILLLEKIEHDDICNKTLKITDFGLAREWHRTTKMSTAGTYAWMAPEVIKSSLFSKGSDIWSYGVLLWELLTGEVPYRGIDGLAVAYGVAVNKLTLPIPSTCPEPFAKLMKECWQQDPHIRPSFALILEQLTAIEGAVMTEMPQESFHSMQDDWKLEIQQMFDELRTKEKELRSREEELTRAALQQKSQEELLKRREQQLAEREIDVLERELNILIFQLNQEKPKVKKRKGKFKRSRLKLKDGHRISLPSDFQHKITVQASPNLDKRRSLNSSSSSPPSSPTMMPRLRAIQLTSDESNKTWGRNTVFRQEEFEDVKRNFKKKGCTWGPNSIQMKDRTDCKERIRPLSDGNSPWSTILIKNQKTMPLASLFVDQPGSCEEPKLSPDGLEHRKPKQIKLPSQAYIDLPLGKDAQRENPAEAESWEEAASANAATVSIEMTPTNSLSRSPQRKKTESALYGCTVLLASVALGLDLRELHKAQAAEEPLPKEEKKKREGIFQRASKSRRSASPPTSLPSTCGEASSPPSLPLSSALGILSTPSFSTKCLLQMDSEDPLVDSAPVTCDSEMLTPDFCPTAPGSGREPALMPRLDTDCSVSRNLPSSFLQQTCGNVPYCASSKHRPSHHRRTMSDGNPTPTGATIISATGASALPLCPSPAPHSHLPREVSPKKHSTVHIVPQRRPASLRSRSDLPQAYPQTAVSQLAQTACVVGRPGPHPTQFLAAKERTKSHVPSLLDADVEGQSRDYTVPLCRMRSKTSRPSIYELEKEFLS
Sequence of Proto-oncogene tyrosine-protein kinase ROS (Homo sapiens) (P08922 whole entry): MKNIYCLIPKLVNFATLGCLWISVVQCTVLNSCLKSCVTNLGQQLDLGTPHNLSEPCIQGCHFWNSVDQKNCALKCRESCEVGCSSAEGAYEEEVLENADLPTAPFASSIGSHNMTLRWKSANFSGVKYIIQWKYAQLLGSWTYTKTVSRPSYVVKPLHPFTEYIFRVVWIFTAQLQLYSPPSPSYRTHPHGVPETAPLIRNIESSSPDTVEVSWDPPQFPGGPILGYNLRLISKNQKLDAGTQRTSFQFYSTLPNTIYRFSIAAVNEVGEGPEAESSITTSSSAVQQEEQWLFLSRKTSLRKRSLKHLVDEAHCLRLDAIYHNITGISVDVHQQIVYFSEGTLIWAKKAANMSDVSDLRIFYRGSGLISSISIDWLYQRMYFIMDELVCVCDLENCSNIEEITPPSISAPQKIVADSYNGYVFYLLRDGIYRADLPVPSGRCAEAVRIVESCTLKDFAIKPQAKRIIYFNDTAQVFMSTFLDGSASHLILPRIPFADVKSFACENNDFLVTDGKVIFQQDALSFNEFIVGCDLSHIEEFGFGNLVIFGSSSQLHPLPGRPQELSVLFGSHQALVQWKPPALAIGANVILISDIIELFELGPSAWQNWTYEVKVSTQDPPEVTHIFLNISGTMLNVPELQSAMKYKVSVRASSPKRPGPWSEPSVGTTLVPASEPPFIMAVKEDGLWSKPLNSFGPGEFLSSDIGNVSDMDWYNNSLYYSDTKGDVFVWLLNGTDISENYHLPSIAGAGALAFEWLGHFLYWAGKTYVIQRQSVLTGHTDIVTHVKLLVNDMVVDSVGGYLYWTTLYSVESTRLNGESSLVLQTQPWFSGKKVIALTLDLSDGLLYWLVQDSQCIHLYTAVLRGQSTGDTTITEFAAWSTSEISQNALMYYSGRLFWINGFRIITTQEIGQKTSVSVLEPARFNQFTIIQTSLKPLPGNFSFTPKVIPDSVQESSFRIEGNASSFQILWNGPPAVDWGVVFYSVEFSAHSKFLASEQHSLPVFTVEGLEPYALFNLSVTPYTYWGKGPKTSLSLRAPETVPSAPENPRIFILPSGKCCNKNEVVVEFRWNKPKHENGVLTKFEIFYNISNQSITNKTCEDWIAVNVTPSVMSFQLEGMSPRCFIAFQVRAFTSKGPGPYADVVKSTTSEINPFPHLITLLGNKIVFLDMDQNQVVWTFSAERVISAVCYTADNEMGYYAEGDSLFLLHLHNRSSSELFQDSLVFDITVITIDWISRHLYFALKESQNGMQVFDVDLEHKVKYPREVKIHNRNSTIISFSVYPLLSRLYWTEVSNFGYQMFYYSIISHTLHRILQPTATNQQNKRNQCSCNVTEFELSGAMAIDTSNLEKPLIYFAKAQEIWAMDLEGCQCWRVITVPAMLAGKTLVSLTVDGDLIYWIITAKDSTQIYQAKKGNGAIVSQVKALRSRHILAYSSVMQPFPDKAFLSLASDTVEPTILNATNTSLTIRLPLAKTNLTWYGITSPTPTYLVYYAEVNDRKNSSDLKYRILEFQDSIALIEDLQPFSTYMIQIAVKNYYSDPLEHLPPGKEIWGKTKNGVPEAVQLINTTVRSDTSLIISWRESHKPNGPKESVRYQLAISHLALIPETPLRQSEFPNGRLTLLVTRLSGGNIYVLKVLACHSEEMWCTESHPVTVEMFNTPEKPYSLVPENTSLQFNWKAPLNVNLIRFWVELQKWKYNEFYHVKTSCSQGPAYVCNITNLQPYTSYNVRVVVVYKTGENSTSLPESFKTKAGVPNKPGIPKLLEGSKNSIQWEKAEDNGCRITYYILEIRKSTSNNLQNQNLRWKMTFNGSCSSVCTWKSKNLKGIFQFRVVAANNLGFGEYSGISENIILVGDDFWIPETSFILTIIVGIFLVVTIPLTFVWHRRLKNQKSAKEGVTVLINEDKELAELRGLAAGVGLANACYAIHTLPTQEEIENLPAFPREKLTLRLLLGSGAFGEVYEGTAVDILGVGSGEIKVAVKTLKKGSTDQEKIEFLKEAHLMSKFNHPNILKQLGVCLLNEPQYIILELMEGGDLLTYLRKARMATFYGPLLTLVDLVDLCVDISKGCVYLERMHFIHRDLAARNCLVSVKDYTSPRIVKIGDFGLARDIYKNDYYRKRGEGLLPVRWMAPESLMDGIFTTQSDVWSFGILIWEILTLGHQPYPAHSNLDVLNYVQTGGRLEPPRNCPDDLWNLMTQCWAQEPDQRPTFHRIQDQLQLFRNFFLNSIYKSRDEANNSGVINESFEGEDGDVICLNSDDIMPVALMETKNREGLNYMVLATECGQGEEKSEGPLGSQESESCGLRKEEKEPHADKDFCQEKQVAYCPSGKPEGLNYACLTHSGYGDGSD
Sequence of Tyrosine-protein kinase receptor UFO (Homo sapiens) (P30530 whole entry): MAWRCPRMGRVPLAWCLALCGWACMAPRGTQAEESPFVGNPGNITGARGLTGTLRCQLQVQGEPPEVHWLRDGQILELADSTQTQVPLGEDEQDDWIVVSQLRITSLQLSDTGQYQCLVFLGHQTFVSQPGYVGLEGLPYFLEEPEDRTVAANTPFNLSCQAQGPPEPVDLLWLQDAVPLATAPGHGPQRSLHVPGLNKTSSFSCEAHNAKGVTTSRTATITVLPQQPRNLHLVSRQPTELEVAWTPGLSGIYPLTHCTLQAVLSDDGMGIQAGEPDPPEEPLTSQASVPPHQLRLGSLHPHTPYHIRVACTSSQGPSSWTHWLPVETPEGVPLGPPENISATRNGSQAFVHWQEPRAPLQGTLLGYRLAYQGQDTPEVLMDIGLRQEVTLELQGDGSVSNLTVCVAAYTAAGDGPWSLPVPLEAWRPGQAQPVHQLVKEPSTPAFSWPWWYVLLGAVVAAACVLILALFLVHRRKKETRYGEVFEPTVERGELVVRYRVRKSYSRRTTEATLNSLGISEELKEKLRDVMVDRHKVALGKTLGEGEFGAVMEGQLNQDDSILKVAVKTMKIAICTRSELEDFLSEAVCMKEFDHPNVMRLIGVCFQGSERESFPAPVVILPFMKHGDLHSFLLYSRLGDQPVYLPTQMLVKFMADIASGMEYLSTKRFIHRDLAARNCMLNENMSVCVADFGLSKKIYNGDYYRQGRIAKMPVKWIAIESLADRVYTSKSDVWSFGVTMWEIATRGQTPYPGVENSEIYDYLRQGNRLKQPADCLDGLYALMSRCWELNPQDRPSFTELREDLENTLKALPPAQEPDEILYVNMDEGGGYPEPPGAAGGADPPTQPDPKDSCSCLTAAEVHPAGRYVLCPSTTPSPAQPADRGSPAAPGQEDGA
Sequence of Dual specificity protein kinase CLK1 (P49759 whole entry, looked up): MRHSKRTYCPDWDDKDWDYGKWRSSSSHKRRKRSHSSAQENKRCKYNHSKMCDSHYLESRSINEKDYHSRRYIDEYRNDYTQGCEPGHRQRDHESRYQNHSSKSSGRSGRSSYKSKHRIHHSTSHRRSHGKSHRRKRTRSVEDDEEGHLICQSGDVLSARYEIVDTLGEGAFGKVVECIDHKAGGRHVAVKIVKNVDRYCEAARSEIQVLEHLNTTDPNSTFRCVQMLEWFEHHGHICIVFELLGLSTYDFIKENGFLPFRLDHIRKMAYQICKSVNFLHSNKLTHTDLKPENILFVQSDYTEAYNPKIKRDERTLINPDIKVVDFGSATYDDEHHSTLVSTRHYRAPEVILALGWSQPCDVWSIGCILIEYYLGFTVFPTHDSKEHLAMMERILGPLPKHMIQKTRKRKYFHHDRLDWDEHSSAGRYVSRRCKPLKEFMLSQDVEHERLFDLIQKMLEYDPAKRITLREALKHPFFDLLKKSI

% of control [1]: 150%
SMILES: CC(=O)Nc1cccc(-n2c(=O)n(C3CC3)c(=O)c3c(Nc4ccc(I)cc4F)n(C)c(=O)c(C)c32)c1

% of inhibition [2]: 16.3%
% of inhibition ([3]; at 0.01 µM): 7.8%
% of inhibition ([3]; at 0.04 µM): 2%
% of inhibition ([3]; at 0.2 µM): 4.6%
% of inhibition ([3]; at 1 µM): 14%
% of inhibition ([3]; at 5 µM): 17%
% of inhibition [4]: 9.99%
SMILES: CC[C@@H]1[C@H](F)C(=O)N[C@@H]1COc1nccc2cc(C(N)=O)c(OC)cc12 [ZIMLOVISERTIB]

% of inhibition [5]: 0%
SMILES: CN1Cc2nccc(-c3cn(C)nc3-c3ccc(F)cc3)c2C1=O

% of inhibition [6]: 29.5%
SMILES: Cn1cc(-n2cnc3c(NCc4nc5cc(Cl)c(Cl)cc5[nH]4)nc(N4CCOCC4)nc32)cn1

SMILES: COCC(=O)NC/C=C/c1ccc2ncnc(Nc3ccc(Oc4ccc(C)nc4)c(C)c3)c2c1 [CP-724714]
% of control [7]: 95%
% of control [8]: 100%
% of control [9]: 68%

SMILES: COc1cc(N(C)c2ccnc3ccc(C(F)(F)F)cc23)cc(OC)c1OC
% binding [10]: 93%
% binding [11]: 87%

SMILES: CCC(=O)N1CCN(c2ccc(-n3c(=O)ccc4cnc5ccc(-c6cnc7ccccc7c6)cc5c43)cc2C(F)(F)F)CC1
% of control [12]: 0%
% of control [13]: 93%

SMILES: C=CC(=O)Nc1cc(-n2c(=O)ccc3cnc4ccc(-c5ccc(NS(C)(=O)=O)cc5)cc4c32)ccc1C
% of control ([14]; at 1 µM): 81%
% of control ([14]; at 10 µM): 83%

SMILES: CNC(=O)Nc1ccc(-c2nc(N3CC4CCC(C3)O4)c3cnn(C4CCC5(CC4)OCCO5)c3n2)cc1
% of control [15]: 77%
% of inhibition [16]: -3%

SMILES: O=C(NOC[C@H](O)CO)c1ccc(F)c(F)c1Nc1ccc(I)cc1F
% of control [17]: 89%
